# Test results: US20250221960A1, “COMPOSITIONS AND METHODS FOR THE TREATMENT OF DEPRESSION” (Janssen Pharmaceuticals, Inc., priority 2022, published 2025)
# What was measured:
# [1] = Completion / early withdrawal, Example 1; format: in vivo, human; details: Full Safety Analysis Set; 10 mg, N = 85
# Description: Patients who passed the screening phase entered a lead in phase followed by a double-blind phase. Patients who responded to placebo during the lead in phase were labelled as non-responders. […] The double-blind treatment phase then continued for an additional 6 weeks, after which patients entered a withdrawal period.
# Of the 121 subjects in the enriched population (60 in aticaprant and 61 in placebo group), 117 (96.7%) completed the study. The overall completion rate for the full ITT analysis set is 95%. This contrasts with completion rates of approximately 85% for studies of adjunctive aripiprazole (Pae, CNS Drugs, 2011; 25, 109-127) and 45-62% for adjunctive quetiapine (El Khalili cited above). In total 4 subjects (3.3%) discontinued the study: 2 subjects in placebo and 2 subjects in aticaprant treatment group. See, Tables 30 and 31.
# subjects with MDD [2] = experiment: ASEX sexual functioning, Example 1; format: in vivo, human
# Description: As used herein, the term “decrease in sexual functioning” refers to reducing or lessening of one or more components of the human sex drive, i.e., sexual functioning. In some embodiments, the sexual functioning comprises one or more of sexual drive, sexual arousal, vaginal lubrication, erection, orgasm achievement, or orgasm satisfaction. In other embodiments, the sexual functioning comprises sexual drive. In further embodiments, the sexual functioning comprises vaginal lubrication satisfaction. In further embodiments, the sexual functioning comprises orgasm achievement. In yet other embodiments, the sexual functioning comprises orgasm satisfaction. Desirably, the patient's sexual functioning is assessed at the time of initial administration of the aticaprant. Thus, the patient's sexual functioning while taking aticaprant can be compared to the patient's sexual functioning before administration of aticaprant. Sexual functioning may be assessed by using standard scales and techniques such as the Arizona Sexual Experience Scale (ASEX). The ASEX is used to investigate whether aticaprant has a further positive or negative effect on sexual function. The ASEX is 5 item rating scale administered to patients that quantifies sexual drive, sexual arousal, vaginal lubrication or penile erection, ability to reach orgasm and satisfaction. Scores range from 5 to 30, and two different versions of the scale are available (males and females).
# Patients had their sexual functioning measured using a standard, well accepted rating scale: ASEX. See, Table 32.
# subjects with MDD [3] = experiment: MADRS total score, adjunctive aticaprant vs placebo (Example 1); details: for MADRS Total Score Change from Baseline LSMean (SE), MMRM / MADRS Total Score LSMean Difference (SE) Treatment - Placebo, MMRM / MADRS Total Score Effect Size vs placebo / MADRS Total Score Mean Change from Baseline (SD): 10 mg
# [4] = High anhedonia, Treatment Week 1, fITT
# [5] = High anhedonia, Treatment Week 3, fITT
# [6] = High anhedonia, Treatment Week 4, fITT
# [7] = High anhedonia, Treatment Week 5, fITT
# [8] = High anhedonia, Treatment Week 6, fITT
# [9] = Low anhedonia, Treatment Week 1, fITT
# [10] = Low anhedonia, Treatment Week 3, fITT
# [11] = Low anhedonia, Treatment Week 4, fITT
# [12] = Low anhedonia, Treatment Week 5, fITT
# [13] = Low anhedonia, Treatment Week 6, fITT
smiles,measurement,setting,value
"Cc1cc(C)cc(C2CCCN2Cc2ccc(Oc3ccc(C(N)=O)cc3F)cc2)c1 (stereo not shown) [aticaprant, 3-fluoro-4-4-2-(3,5-dimethylphenyl) pyrrolidin-1-yl-methylphenoxybenzamide]",Reason For Withdrawal/Termination: Adverse event,[1],1 (1.2%)
same,ASEX score: Relative % Change,"subjects with MDD [2]; Endpoint vs Baseline, n = 85",−6.91%
same,ASEX score: Absolute Change,"subjects with MDD [2]; Endpoint vs Baseline, n = 85, lower score indicates improvement",−1.47
same,sexual functioning during treatment,subjects with MDD [2]; based on assessment at time of initial administration,does not experience a decrease in sexual functioning
same,mean change from treatment baseline (SD) in ASEX total score,subjects with MDD [2]; to week 6,-1.5 (4.02) points
same,MADRS Total Score: Mean Change from Baseline (SD),"subjects with MDD [3]; High anhedonia (SHAPS >=38 at treatment baseline), Treatment Week 1, fITT",−4.4 (5.04)
same,MADRS Total Score: Effect size,subjects with MDD [3]; [4],−0.45
same,MADRS Total Score: Mean Change to Placebo (SD pooled),subjects with MDD [3]; [4],−2.0 (4.38)
same,MADRS Total Score: Effect size,subjects with MDD [3]; [5],−0.54
same,MADRS Total Score: Mean Change from Baseline (SD),subjects with MDD [3]; [5],−6.9 (6.66)
same,MADRS Total Score: Mean Change to Placebo (SD pooled),subjects with MDD [3]; [5],−3.8 (6.94)
same,MADRS Total Score: Effect size,subjects with MDD [3]; [6],−0.50
same,MADRS Total Score: Mean Change from Baseline (SD),subjects with MDD [3]; [6],−8.6 (7.32)
same,MADRS Total Score: Mean Change to Placebo (SD pooled),subjects with MDD [3]; [6],−3.8 (7.56)
same,MADRS Total Score: Effect size,subjects with MDD [3]; [7],−0.51
same,MADRS Total Score: Mean Change from Baseline (SD),subjects with MDD [3]; [7],−10.2 (8.04)
same,MADRS Total Score: Mean Change to Placebo (SD pooled),subjects with MDD [3]; [7],−4.0 (7.87)
same,MADRS Total Score: Effect size,subjects with MDD [3]; [8],−0.51
same,MADRS Total Score: Mean Change from Baseline (SD),subjects with MDD [3]; [8],−11.3 (8.69)
same,MADRS Total Score: Mean Change to Placebo (SD pooled),subjects with MDD [3]; [8],−4.6 (9.03)
same,MADRS Total Score: Mean Change from Baseline (SD),"subjects with MDD [3]; Low anhedonia (SHAPS >=20 and <38 at treatment baseline), Treatment Week 1, fITT",−2.4 (4.59)
same,MADRS Total Score: Effect size,subjects with MDD [3]; [9],−0.24
same,MADRS Total Score: Mean Change to Placebo (SD pooled),subjects with MDD [3]; [9],−1.0 (4.39)
same,MADRS Total Score: Effect size,subjects with MDD [3]; [10],−0.08
same,MADRS Total Score: Mean Change from Baseline (SD),subjects with MDD [3]; [10],−4.1 (6.67)
same,MADRS Total Score: Mean Change to Placebo (SD pooled),subjects with MDD [3]; [10],−0.5 (6.37)
same,MADRS Total Score: Effect size,subjects with MDD [3]; [11],−0.23
same,MADRS Total Score: Mean Change from Baseline (SD),subjects with MDD [3]; [11],−6.4 (6.77)
same,MADRS Total Score: Mean Change to Placebo (SD pooled),subjects with MDD [3]; [11],−1.5 (6.65)
same,MADRS Total Score: Effect size,subjects with MDD [3]; [12],−0.10
same,MADRS Total Score: Mean Change from Baseline (SD),subjects with MDD [3]; [12],−7.3 (6.90)
same,MADRS Total Score: Mean Change to Placebo (SD pooled),subjects with MDD [3]; [12],−0.7 (6.86)
same,MADRS Total Score: Effect size,subjects with MDD [3]; [13],−0.29
same,MADRS Total Score: Mean Change from Baseline (SD),subjects with MDD [3]; [13],−8.8 (7.48)
same,MADRS Total Score: Mean Change to Placebo (SD pooled),subjects with MDD [3]; [13],−2.3 (7.80)
same,"Change from Treatment Baseline in MADRS Total Score, Least Squares Mean Difference point estimate","subjects with MDD [3]; Treatment Week 6, both responders and non-responders during placebo lead-in, 10 mg vs placebo",−3.1 score on a scale
same,"MADRS LSMeans difference estimate, supplementary MMRM analysis (data prior to 15 Mar. 2020, COVID-19)",subjects with MDD [3]; eITT,−3.0
same,MADRS Total Score Mean Change to Placebo,"subjects with MDD [3]; eITT, High anhedonia (baseline SHAPS >=38), Treatment Week 1",−1.8
same,MADRS Total Score Mean Change to Placebo,"subjects with MDD [3]; eITT, High anhedonia (baseline SHAPS >=38), Treatment Week 3",−3.0
same,MADRS Total Score Mean Change to Placebo,"subjects with MDD [3]; eITT, High anhedonia (baseline SHAPS >=38), Treatment Week 4",−2.2
same,MADRS Total Score Mean Change to Placebo,"subjects with MDD [3]; eITT, High anhedonia (baseline SHAPS >=38), Treatment Week 5",−2.6
same,MADRS Total Score Mean Change to Placebo,"subjects with MDD [3]; eITT, High anhedonia (baseline SHAPS >=38), Treatment Week 6",−3.4
same,MADRS Total Score Mean Change to Placebo,"subjects with MDD [3]; eITT, Low anhedonia (baseline SHAPS >=20 and <38), Treatment Week 1",−0.5
same,MADRS Total Score Mean Change to Placebo,"subjects with MDD [3]; eITT, Low anhedonia (baseline SHAPS >=20 and <38), Treatment Week 3",−0.1
same,MADRS Total Score Mean Change to Placebo,"subjects with MDD [3]; eITT, Low anhedonia (baseline SHAPS >=20 and <38), Treatment Week 4",0.0
same,MADRS Total Score Mean Change to Placebo,"subjects with MDD [3]; eITT, Low anhedonia (baseline SHAPS >=20 and <38), Treatment Week 5",0.3
same,MADRS Total Score Mean Change to Placebo,"subjects with MDD [3]; eITT, Low anhedonia (baseline SHAPS >=20 and <38), Treatment Week 6",−0.9
same,"MADRS Total Score Change from Baseline LSMean (SE), MMRM","subjects with MDD [3]; eITT, Treatment Week 1",3.2
same,"MADRS Total Score LSMean Difference (SE) Treatment - Placebo, MMRM","subjects with MDD [3]; eITT, Treatment Week 1",−1.2
same,MADRS Total Score Effect Size vs placebo,"subjects with MDD [3]; eITT, Treatment Week 3",−0.22
same,"MADRS Total Score LSMean Difference (SE) Treatment - Placebo, MMRM","subjects with MDD [3]; eITT, Treatment Week 3",−1.5
same,MADRS Total Score Effect Size vs placebo,"subjects with MDD [3]; eITT, Treatment Week 4",−0.14
same,"MADRS Total Score LSMean Difference (SE) Treatment - Placebo, MMRM","subjects with MDD [3]; eITT, Treatment Week 4",−1.1
same,MADRS Total Score Effect Size vs placebo,"subjects with MDD [3]; eITT, Treatment Week 5",−0.14
same,"MADRS Total Score LSMean Difference (SE) Treatment - Placebo, MMRM","subjects with MDD [3]; eITT, Treatment Week 5",−1.5
same,percentage of subjects with MADRS remission (MADRS total score≤10),"subjects with MDD [3]; eITT, Treatment Week 6",16.9%
same,"MADRS Total Score LSMean Difference (SE) Treatment - Placebo, MMRM","subjects with MDD [3]; eITT, Treatment Week 6",−2.1
same,"MADRS LSMeans difference estimate, supplementary MMRM analysis (data prior to 15 Mar. 2020, COVID-19)",subjects with MDD [3]; fITT,−3.4
same,onset of significant treatment effect (MADRS LS mean change from baseline),"subjects with MDD [3]; fITT, FIG. 7B",3 week
same,"MADRS Total Score LSMean Difference (SE) Treatment - Placebo, MMRM","subjects with MDD [3]; fITT, Treatment Week 1",−1.6
same,MADRS Total Score Mean Change from Baseline (SD),"subjects with MDD [3]; fITT, Treatment Week 1",−3.1
same,"MADRS Total Score Change from Baseline LSMean (SE), MMRM","subjects with MDD [3]; fITT, Treatment Week 3",−5.2
same,MADRS Total Score Effect Size vs placebo,"subjects with MDD [3]; fITT, Treatment Week 3",−0.26
same,"MADRS Total Score LSMean Difference (SE) Treatment - Placebo, MMRM","subjects with MDD [3]; fITT, Treatment Week 3",−1.9
same,MADRS Total Score Mean Change from Baseline (SD),"subjects with MDD [3]; fITT, Treatment Week 3",−5.1
same,MADRS Total Score Effect Size vs placebo,"subjects with MDD [3]; fITT, Treatment Week 4",−0.32
same,"MADRS Total Score LSMean Difference (SE) Treatment - Placebo, MMRM","subjects with MDD [3]; fITT, Treatment Week 4",−2.5
same,MADRS Total Score Mean Change from Baseline (SD),"subjects with MDD [3]; fITT, Treatment Week 4",−7.2
same,MADRS Total Score Effect Size vs placebo,"subjects with MDD [3]; fITT, Treatment Week 5",−0.26
same,"MADRS Total Score LSMean Difference (SE) Treatment - Placebo, MMRM","subjects with MDD [3]; fITT, Treatment Week 5",−2.4
same,MADRS Total Score Mean Change from Baseline (SD),"subjects with MDD [3]; fITT, Treatment Week 5",−8.3
same,percentage of subjects with MADRS remission (MADRS total score≤10),"subjects with MDD [3]; fITT, Treatment Week 6",31.2%
same,"MADRS Total Score Change from Baseline LSMean (SE), MMRM","subjects with MDD [3]; fITT, Treatment Week 6",−9.6
same,"MADRS Total Score LSMean Difference (SE) Treatment - Placebo, MMRM","subjects with MDD [3]; fITT, Treatment Week 6",−3.1
same,MADRS total score difference between aticaprant and placebo,"subjects with MDD [3]; fITT, low anhedonia level (n=94), Treatment Week 6",−2.3
same,LSMD (MADRS) in high anhedonia group relative to low anhedonia group,subjects with MDD [3]; week 6,more than double
